Data from the NIST ThermoML archive (doi:10.1016/j.tca.2013.04.003).
± gives the expanded uncertainty stated by the source.

Experiment: molar enthalpy of vaporization or sublimation
Conditions: Liquid, TGA

molar enthalpy (432.1 K)	SMILES	molar enthalpy (432.4 K)
30.3 ± 0.717 kcal/mol	CCn1cc[n+](C)c1.[Cl-] [1-ethyl-3-methylimidazolium chloride]	
	CCCCCCn1cc[n+](C)c1.[Cl-] [1-hexyl-3-methylimidazolium chloride]	34.4 ± 0.717 kcal/mol
